Source: publication PMC2852139 (Biochemistry, 2010)

Target: T1, Apaf-1 (Homo sapiens, UniProt O14727)
T1 sequence (O14727 1-1248): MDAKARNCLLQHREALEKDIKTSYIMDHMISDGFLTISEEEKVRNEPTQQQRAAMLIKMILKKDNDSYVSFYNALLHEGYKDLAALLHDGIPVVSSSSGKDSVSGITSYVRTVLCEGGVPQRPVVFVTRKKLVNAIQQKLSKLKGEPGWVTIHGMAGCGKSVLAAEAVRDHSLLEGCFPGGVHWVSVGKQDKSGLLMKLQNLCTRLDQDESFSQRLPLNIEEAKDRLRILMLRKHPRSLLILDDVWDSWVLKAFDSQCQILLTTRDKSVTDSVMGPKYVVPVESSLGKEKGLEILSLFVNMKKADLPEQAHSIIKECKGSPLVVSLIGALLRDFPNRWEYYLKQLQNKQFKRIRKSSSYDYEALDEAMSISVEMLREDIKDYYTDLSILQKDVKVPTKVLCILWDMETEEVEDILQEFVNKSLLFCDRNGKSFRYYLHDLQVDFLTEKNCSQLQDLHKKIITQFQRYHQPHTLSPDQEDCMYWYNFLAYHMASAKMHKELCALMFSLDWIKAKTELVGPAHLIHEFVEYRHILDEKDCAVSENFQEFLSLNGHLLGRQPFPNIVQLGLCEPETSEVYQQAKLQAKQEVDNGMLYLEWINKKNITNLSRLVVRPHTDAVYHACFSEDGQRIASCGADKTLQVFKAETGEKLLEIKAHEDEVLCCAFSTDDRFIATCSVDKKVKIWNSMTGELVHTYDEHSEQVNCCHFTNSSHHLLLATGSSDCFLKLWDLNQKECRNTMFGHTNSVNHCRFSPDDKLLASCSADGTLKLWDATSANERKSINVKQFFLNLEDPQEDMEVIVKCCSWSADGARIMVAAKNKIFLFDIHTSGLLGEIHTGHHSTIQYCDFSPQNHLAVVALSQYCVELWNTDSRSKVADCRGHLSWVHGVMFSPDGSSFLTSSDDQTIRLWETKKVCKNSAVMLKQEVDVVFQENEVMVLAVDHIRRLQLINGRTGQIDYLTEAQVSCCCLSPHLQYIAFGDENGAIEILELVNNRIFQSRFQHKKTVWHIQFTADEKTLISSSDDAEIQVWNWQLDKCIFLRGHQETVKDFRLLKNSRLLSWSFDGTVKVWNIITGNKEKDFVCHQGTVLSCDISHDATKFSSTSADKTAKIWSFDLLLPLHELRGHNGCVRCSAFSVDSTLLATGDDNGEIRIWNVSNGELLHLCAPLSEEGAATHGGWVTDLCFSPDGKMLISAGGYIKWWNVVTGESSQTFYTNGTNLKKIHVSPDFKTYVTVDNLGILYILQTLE
T1 sequence (P06454 2-111 partner): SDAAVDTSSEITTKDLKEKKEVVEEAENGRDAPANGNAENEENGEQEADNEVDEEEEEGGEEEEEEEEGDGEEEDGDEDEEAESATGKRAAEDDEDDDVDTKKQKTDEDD
Assay: ELISA and FLAG-IP of recombinant Apaf-1/ProT interaction blocked by BETT
Assay type: biochemical

- EC50: ~50 µM
Structure (SMILES): Sc1nnc(-c2cc3ccccc3o2)n1-c1ccccc1 [BETT, 5-(2-Benzofuryl)-4-phenyl-1,2,4-triazole-3-thiol]
